Results: paper PMC4414177, “A novel orally active water-soluble inhibitor of human glutathione transferase exerts a potent and selective antitumor activity against human melanoma xenografts” (Oncotarget, 2015)

How the values were obtained:
A375 = assay: Cell growth inhibition, SRB assay; format: cell-based; settings: Homo sapiens, A-375, A375, 48 h
Experimental: (§1) The IC50 values for each compound were then evaluated by the SRB assay.

G-361 = assay: Cell growth inhibition, SRB assay; format: cell-based; settings: Homo sapiens, G-361, 48 h
Experimental: as §1

IST-MEL-1 = assay: Cell growth inhibition, SRB assay; format: cell-based; settings: Homo sapiens, IST-MEL-1, 48 h
Experimental: as §1

MALME-3M = assay: Cell growth inhibition, SRB assay; format: cell-based; settings: Homo sapiens, 48 h
Experimental: as §1

SK23-MEL = assay: Cell growth inhibition, SRB assay; format: cell-based; settings: Homo sapiens, 48 h
Experimental: as §1

[1] = tested on: five cultured human melanoma cell lines; assay: Cell growth inhibition, SRB assay, whole panel; format: cell-based; settings: range over A375, G-361, MALME-3M, IST-MEL-1, SK23-MEL
Experimental: as §1

A375 cells [2] = assay: Cell cycle analysis (PI, flow cytometry); format: cell-based, human; settings: A375, 10 μM
Experimental: (§2) A375 and SK23-MEL cells, were fixed with 70% ethanol overnight, stained with PI staining buffer ([…] and 1% Triton X-100) and analyzed by a FACSCalibur (BD Bioscence, San Jose, CA, USA). The percentage of early apoptotic, late apoptotic, and necrotic cells was determined by simultaneous staining of cells with PI (2 μg/ml) and Annexin V-FITC (0.5 μg/ml) (Sigma Aldrich), according to manufacturer's protocol. Flow cytometric data were analyzed by the FlowJo 8.8.6 software (Tree Stare, Inc, Ashland, OR, USA).

SK23-MEL cells [3] = assay: Cell cycle analysis (PI, flow cytometry); format: cell-based, human; settings: 7 μM
Experimental: as §2

A375 cells [4] = assay: Annexin V / PI staining (flow cytometry); format: cell-based, human
Experimental: as §2

SK23-MEL cells [5] = assay: Annexin V / PI staining (flow cytometry); format: cell-based, human; settings: 48 hrs of treatment
Experimental: as §2

A375 cells [6] = assay: JNK phospho-activation (Western blot); format: cell-based, human; settings: A375, 10 μM
Experimental: The cell pellet obtained at each time point was lysed as previously reported and the protein concentration was determined using the Lowry colorimetric assay. Proteins (40 μg) were loaded on 12% SDS-polyacrylamide gel and transferred onto a PVDF membrane (GE Healthcare, Chalfont St. Giles, UK). Anti-P-JNK (Thr183 Tyr185) (Cell Signaling, Beverly, MA, USA), anti-JNK (Cell Signaling) and anti-β actin were used as primary antibodies. […] The ImageJ software was used to analyze the band intensities.

SK23-MEL cells [7] = assay: Cell morphology (phase-contrast microscopy); format: cell-based, human; settings: 7 μM, 48 hrs
SK23-MEL cells [8] = assay: Melanin content; format: cell-based, human; settings: 7 μM, 48 hrs, p < 0.05
Experimental: (§3) Cells (1×10^6) were lysed in 1M NaOH at 100°C, for 1 hour and then centrifuged at 15,000 g, for 20 minutes. […] Tyrosinase activity was examined by measuring spectrophotometrically at 475 nm the rate of L-DOPA oxidation to dopachrome over 1 hour at 37°C. Cells [1×10^6 in 40 μl of 20 mM potassium phosphate buffer (pH 6.8) containing 1% Triton X-100 and 1 mM PMSF] were disrupted by freezing and thawing and centrifuged at 15,000 g for 20 minutes at 4°C. The assay was started by addition of 100 μl of 2 mg/ml L-DOPA to 40 μl of supernatant. Tyrosinase activity was expressed as change in absorbance, per hour, per 10^6 cells.

SK23-MEL cells [9] = assay: Tyrosinase activity; format: cell-based, human; settings: 7 μM, 48 hrs, p < 0.005
Experimental: as §3

[10] = tested on: SK23-MEL human melanoma cells; assay: SK23-MEL cellular xenograft model, antitumor efficacy; format: in vivo, mice; settings: 8 mg/kg/day i.v. or oral, q1dx5 three weeks
Experimental: (§4) SK23-MEL and G-361 cells were injected s.c. (in both cases, 1×10^6) into the right flank of NOD/SCID and SCID male mice, respectively. Animals were randomly divided in groups of 6 mice and treatments were started at day 10 (SK23-MEL) and 14 (G-361), when tumors were clearly palpable.
(§5) Primary tumor growth was determined for all animals by caliper measurement (minor and major axis length), three times per week, until they were sacrificed. Primary tumor volume was determined using the following equation: V (cm^3)=(α^2×β)/2 (Eq. 3)
(§6) The efficacy of the treatment was also analyzed by calculation of the percentage of Increase in Life Span (% ILS), since this analysis gives an evidence of clinical potency. Survival endpoint for each animal was fixed at the day when tumor volume reached 1.0 cm^3 (A375) or 0.4 cm^3 (SK23-MEL and G-361), and data were used to plot the relative Kaplan-Meier curves. Treatment efficacy was then evaluated by comparing the Median Survival Time (MST) of treated group with the MST of control group, and expressed as percentage of ILS: % ILS=[100×(MSTtreated group)/(MSTcontrol group)]−100 (Eq. 4)
(§7) Treatment was considered effective when % ILS > 20%.

[11] = tested on: G-361 human melanoma cells; assay: G-361 cellular xenograft model, antitumor efficacy; format: in vivo, mice; settings: G-361 xenograft
Experimental: as §4, §5, §6, §7

A375 tumor xenografts = assay: Immunohistochemical analysis of A375 tumor xenografts; format: in vivo, mice
Excerpt: (§8) At sacrifice, tumors were removed, formalin-fixed and paraffin embedded. All internal organs were fixed and paraffin embedded for the morphological study to evaluate drug effects in normal tissues. Three μm-thick sections were cut and stained with haematoxylin and eosin (H&E). Two observers blindly classified the tissues for necrotic areas, evaluated as percent of total area, mitosis number in 10 high power field randomly selected away from the ischemic necrosis.
Briefly, 3-μm-thick sections were pre-treated with EDTA citrate pH 7.8, for 30 min, at 95°C and then incubated respectively with rabbit monoclonal anti-Phospho-SAPK/JNK (1:100, 81E11, Cell Signaling, Danvers Massachusetts, USA) and rabbit polyclonal anti-Caspase3, for 60 min (1:100, PA5-16335, ThermoFisher Scientific, Walthman, MA, USA). Washing were performed with PBS 4% + Tween20, pH 7.6, by UCS diagnostic.

SK23-MEL tumors = assay: Histological analysis of SK23-MEL tumors; format: in vivo, mice; settings: SK23-MEL xenografts, MC3181-treated
Excerpt: as §8

O=[N+]([O-])c1ccc(SCCOCCOCCO)c2nonc12 [MC3181, 2-(2-(2-((7-nitrobenzo[c][1,2,5]oxadiazol-4-yl)thio)ethoxy)ethoxy)ethanol]
IC50 (A375): 2.31 ± 0.04 µM | IC50 (G-361): 0.78 ± 0.04 µM | IC50 (IST-MEL-1): 0.92 ± 0.07 µM | IC50 (MALME-3M): 2.42 ± 0.16 µM | IC50 (SK23-MEL): 1.79 ± 0.05 µM | IC50 [1]: 0.8 to 2.4 µM | increase in the amount of cells in the sub-G1 phase (A375 cells [2]; 24 hrs): about 27% | increase in the amount of cells in the sub-G1 phase (A375 cells [2]; 48 hrs): ~36% | increase in the number of cells in sub-G1 phase (SK23-MEL cells [3]; 24 hrs): about 10% | increase in the number of cells in sub-G1 phase (SK23-MEL cells [3]; 48 hrs): ~20% | percentage of total apoptotic cells (A375 cells [4]; A375, 24 hrs post-treatment): approximately 23% | percentage of total apoptotic cells (A375 cells [4]; A375, 48 hrs post-treatment): ~37% | percentage of total apoptotic cells (SK23-MEL cells [5]): about 20% | JNK phosphorylation (A375 cells [6]): sustained increase in JNK phosphorylation | start of the increase in JNK phosphorylation after addition of the drug (A375 cells [6]): ≤ 1 h | cell morphology (SK23-MEL cells [7]): clear morphological changes | melanin content (SK23-MEL cells [8]): significant increase | tyrosinase activity (SK23-MEL cells [9]): significant increase | ILS [10]: < 20% | tumor growth [10]: a certain degree of delay in tumor growth | animals still alive at the end of the observation period ([11]; 8 mg/kg/day oral): 50% | disease course ([11]; 8 mg/kg/day oral): stabilization and regression of the disease in half of the treated mice | tumor growth ([11]; 8 mg/kg/day, both administration routes (i.v., oral)): significant delay in tumor growth | higher apoptosis compared to untreated controls (A375 tumor xenografts; A375 tumor xenografts, data not shown): about 20% | JNK phosphorylation and caspase-3 in tumors (A375 tumor xenografts; A375 xenografts, 8 mg/kg, P-JNK 6 hrs after treatment, caspase-3 at end of treatment): significant increase of JNK phosphorylation and caspase-3 activity | tumor histology (SK23-MEL tumors): melanin production
